# Results: patent US10253039B2, “Inhibitors of bacterial DNA gyrase with efficacy against gram-negative bacteria” (priority 2014, dated 2019)
# Read-outs that look alike come from different tables or passages of the source.
# Assays:
# [1] = system: Salmonella enterica subsp. enterica typhimurium; assay: MIC, 20-strain panel; format: cell-based
# In short: (§1)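 Inoculum 1:10000 (LB, log-phase subculture). Triplicate twofold dilutions plus DMSO column. 37° C., shaken, 16-18 h. Lowest non-turbid well = MIC. CLSI method.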
# [2] = system: Klebsiella pneumoniae subsp. pneumoniae; assay: MIC, 20-strain panel; format: cell-based
# In short: as §1
# [3] = system: Streptococcus agalactiae; assay: MIC, 20-strain panel; format: cell-based
# In short: as §1
# [4] = system: Staphylococcus saprophyticus subsp. saprophyticus; assay: MIC, 20-strain panel; format: cell-based
# In short: as §1
# [5] = system: E. coli MG1655; assay: MIC, 20-strain panel; format: cell-based; details: Escherichia coli, read-out: MIC
# In short: as §1
# [6] = system: Streptococcus pyogenes; assay: MIC, 20-strain panel; format: cell-based
# In short: as §1
# [7] = system: Staphylococcus epidermidis; assay: MIC, 20-strain panel; format: cell-based
# In short: as §1
# [8] = system: Staphylococcus aureus subsp. aureus; assay: MIC, 20-strain panel; format: cell-based; details: read-out: MIC
# In short: as §1
# [9] = system: Morganella morganii subsp. morganii; assay: MIC, 20-strain panel; format: cell-based; details: Morganella morganii
# In short: as §1
# [10] = system: Shigella flexneri; assay: MIC, 20-strain panel; format: cell-based
# In short: as §1
# [11] = system: E. coli JW5503 (deltolC); assay: MIC, 20-strain panel; format: cell-based; details: Escherichia coli
# In short: as §1
# [12] = system: Enterobacter aerogenes; assay: MIC, microdilution in 96-well plates; format: cell-based; details: Klebsiella aerogenes
# In short: as §1
# [13] = system: Acinetobacter baumannii; assay: MIC, microdilution in 96-well plates; format: cell-based
# In short: as §1
# [14] = system: Edwardsiella tarda; assay: MIC, microdilution in 96-well plates; format: cell-based
# In short: as §1
# [15] = system: E. coli BW25113; assay: MIC, microdilution in 96-well plates; format: cell-based; details: Escherichia coli, read-out: MIC
# In short: as §1
# [16] = system: Pseudomonas aeruginosa; assay: MIC, microdilution in 96-well plates; format: cell-based
# In short: as §1
# [17] = system: E. coli BW25113 ΔtolC gyrR isolate GyrB Thr508Met; assay: MIC against gyramide-resistant mutant
# Experimental: (§2) A microdilution method in 96-well plates was used and the MIC protocol established by the Clinical Laboratory Standards Institute was followed. From a growing subculture, a 1:10000 inoculum of each strain in Luria-Bertani media was prepared and aliquoted 100 μL in 4 columns of wells, except for the top row wells, which contained 200 μL of inoculum. […] The liquid in each of wells was mixed with a multi-channel pipet and 100 μL was transferred to the next well and mixed. The 2-fold dilution was continued down the 96-well plate until 100 μL was left, which was discarded. The plates were incubated at 37° C. with shaking for 16-18 hours. The MIC was determined as the lowest concentration that inhibited growth and had no turbidity by visual inspection.
# [18] = system: E. coli BW25113 ΔtolC gyrR isolate GyrA Ser97Pro; assay: MIC against gyramide-resistant mutant
# Experimental: as §2
# [19] = system: E. coli BW25113 ΔtolC gyrR isolate GyrA Pro35Thr; assay: MIC against gyramide-resistant mutant
# Experimental: as §2
# [20] = system: E. coli BW25113 ΔtolC; assay: MIC, microdilution in 96-well plates; details: Table 4
# [21] = system: E. coli BW25113 ΔtolC gyrR isolate GyrA Phe96Leu; assay: MIC against gyramide-resistant mutant
# Experimental: as §2
# [22] = system: E. coli BW25113 ΔtolC gyrR isolate GyrA His45Tyr; assay: MIC against gyramide-resistant mutant
# Experimental: as §2
# [23] = F: Salmonella enterica subsp. enterica Typhimurium
# [24] = Salmonella enterica subsp. enterica typhimurium, Table 7, separate set of experiments
# [25] = E: Klebsiella pneumoniae subsp. pneumoniae
# [26] = Klebsiella pneumoniae subsp. pneumoniae, Table 7, separate set of experiments
# [27] = MG1655, E. coli MG1655, Table 7, separate set of experiments
# [28] = H: Staphylococcus aureus subsp. aureus
# [29] = Table 7, separate set of experiments
# [30] = E. coli JW5503 (deltolC), Table 7, separate set of experiments
# [31] = BW25113, E. coli BW25113, Table 7, separate set of experiments
# [32] = Salmonella enterica subsp. enterica Typhimurium
# [33] = Klebsiella pneumoniae subsp. pneumoniae
# [34] = Staphylococcus aureus subsp. aureus
Structure (SMILES),MIC [3] [µg/mL],MIC [4] [µg/mL],MIC [6] [µg/mL],MIC [7] [µg/mL],"MIC [1, 32] [µg/mL]","MIC [2, 33] [µg/mL]","MIC ([5]; MG1655, E. coli MG1655) [µg/mL]","MIC [8, 34] [µg/mL]",MIC [10] [µg/mL],MIC ([11]; E. coli JW5503 (deltolC)) [µg/mL],MIC [14] [µg/mL],"MIC ([15]; BW25113, E. coli BW25113) [µg/mL]",also measured
N#Cc1ccc(Cl)c(S(=O)(=O)N[C@@H]2CCN(Cc3ccc(OC4CC4)cc3)C2)c1 [Compound 77],> 8,> 8,> 8,> 8,,,,,,,,,"MIC [1, 23]: 1 µg/mL; MIC [1, 24]: 2 µg/mL; MIC [2, 25]: ~8 µg/mL; MIC [2, 26]: > 16 µg/mL; MIC ([5]; MG1655, A: E. coli MG1655): 8 µg/mL; MIC [5, 27]: 16 µg/mL; MIC [8, 28]: > 8 µg/mL; MIC [9]: > 16 µg/mL; MIC ([10]; G: Shigella flexneri): 4 µg/mL; MIC [10, 29]: 4 µg/mL; MIC ([11]; C: E. coli JW5503 (deltolC)): 0.125 µg/mL; MIC [11, 30]: 0.125 µg/mL; MIC [12]: > 16 µg/mL; MIC [13]: > 16 µg/mL; MIC ([14]; D: Edwardsiella tarda): 8 µg/mL; MIC [14, 29]: 16 µg/mL; MIC ([15]; BW25113, B: E. coli BW25113): 8 µg/mL; MIC [15, 31]: 8 µg/mL; MIC [16]: > 16 µg/mL"
Cc1ccc(C#N)cc1S(=O)(=O)N[C@@H]1CCN(Cc2ccc(OC3CC3)cc2)C1 [Compound 113],> 8,> 8,> 8,> 8,,,,,,,,,"MIC [1, 23]: 2 µg/mL; MIC [1, 24]: 4 µg/mL; MIC [2, 25]: > 8 µg/mL; MIC [2, 26]: > 16 µg/mL; MIC ([5]; MG1655, A: E. coli MG1655): ~8 µg/mL; MIC [5, 27]: 16 µg/mL; MIC [8, 28]: > 8 µg/mL; MIC [9]: > 16 µg/mL; MIC ([10]; G: Shigella flexneri): ~8 µg/mL; MIC [10, 29]: 8 µg/mL; MIC ([11]; C: E. coli JW5503 (deltolC)): 0.25 µg/mL; MIC [11, 30]: 0.125 µg/mL; MIC [12]: > 16 µg/mL; MIC [13]: > 16 µg/mL; MIC ([14]; D: Edwardsiella tarda): ~8 µg/mL; MIC [14, 29]: 16 µg/mL; MIC ([15]; BW25113, B: E. coli BW25113): ~8 µg/mL; MIC [15, 31]: 8 µg/mL; MIC [16]: > 16 µg/mL"
O=S(=O)(N[C@@H]1CCN(Cc2ccc(OC3CC3)cc2)C1)c1cccc(C(F)(F)F)c1 [Compound 156],> 8,> 8,> 8,> 8,,,,,,,,,"MIC [1, 23]: 4 µg/mL; MIC [1, 24]: 4 µg/mL; MIC [2, 25]: > 8 µg/mL; MIC [2, 26]: > 16 µg/mL; MIC ([5]; MG1655, A: E. coli MG1655): ~8 µg/mL; MIC [5, 27]: 16 µg/mL; MIC [8, 28]: > 8 µg/mL; MIC [9]: > 16 µg/mL; MIC ([10]; G: Shigella flexneri): 8 µg/mL; MIC [10, 29]: 8 µg/mL; MIC ([11]; C: E. coli JW5503 (deltolC)): 0.125 µg/mL; MIC [11, 30]: 0.125 µg/mL; MIC [12]: > 16 µg/mL; MIC [13]: > 16 µg/mL; MIC ([14]; D: Edwardsiella tarda): ~8 µg/mL; MIC [14, 29]: 16 µg/mL; MIC ([15]; BW25113, B: E. coli BW25113): ~8 µg/mL; MIC [15, 31]: 16 µg/mL; MIC [16]: > 16 µg/mL"
O=S(=O)(N[C@@H]1CCN(Cc2nc(-c3ccccc3)cs2)C1)c1cccc(C(F)(F)F)c1 [Compound 173],> 8,> 8,> 8,> 8,> 8,> 8,> 8,> 8,> 8,> 8,> 8,> 8,
Cc1ccc(S(=O)(=O)N[C@@H]2CCN(Cc3ccc(-c4ccccc4)cc3)C2)cn1 [Compound 174],> 8,> 8,> 8,> 8,> 8,> 8,> 8,> 8,> 8,> 8,> 8,> 8,
Cc1ccc(S(=O)(=O)N[C@@H]2CCN(Cc3ccc(OC4CC4)cc3)C2)cn1 [Compound 175],> 8,> 8,> 8,> 8,> 8,> 8,> 8,> 8,> 8,> 8,> 8,> 8,
CSc1ccc(CN2CC[C@@H](NS(=O)(=O)c3cccc(OC(F)(F)F)c3)C2)cc1 [Compound 176],> 8,> 8,> 8,> 8,> 8,> 8,> 8,> 8,> 8,8,> 8,> 8,
O=S(=O)(N[C@@H]1CCN(Cc2ccc(OC3CCC3)cc2)C1)c1cccc(OC(F)(F)F)c1 [Compound 177],> 8,> 8,> 8,> 8,> 8,> 8,> 8,> 8,> 8,2,> 8,> 8,
O=S(=O)(N[C@@H]1CCN(Cc2ccc(-c3ccccc3)cc2)C1)c1cnc2ccccc2c1 [Compound 178],> 8,> 8,> 8,> 8,> 8,> 8,> 8,> 8,> 8,> 8,> 8,> 8,
CC(C)Oc1ccc(CN2CC[C@@H](NS(=O)(=O)c3ccc4c(c3)CC(=O)N4C)C2)cc1 [Compound 179],> 8,> 8,> 8,> 8,> 8,> 8,> 8,> 8,> 8,> 8,> 8,> 8,
CN1C(=O)Cc2cc(S(=O)(=O)N[C@@H]3CCN(Cc4ccc(-c5ccccc5)cc4)C3)ccc21 [Compound 180],> 8,> 8,> 8,> 8,> 8,> 8,> 8,> 8,> 8,> 8,> 8,> 8,
CN1C(=O)Cc2cc(S(=O)(=O)N[C@@H]3CCN(Cc4ccc(OC5CC5)cc4)C3)ccc21 [Compound 181],> 8,> 8,> 8,> 8,> 8,> 8,> 8,> 8,> 8,> 8,> 8,> 8,
Cc1ccc(C(F)(F)F)cc1S(=O)(=O)N[C@@H]1CCN(Cc2ccc(-c3ccccc3)cc2)C1 [Compound 182],> 8,> 8,~8,4,,,,,,,,,"MIC [1, 23]: > 8 µg/mL; MIC [2, 25]: > 8 µg/mL; MIC ([5]; MG1655, A: E. coli MG1655): > 8 µg/mL; MIC [8, 28]: > 8 µg/mL; MIC ([10]; G: Shigella flexneri): > 8 µg/mL; MIC ([11]; C: E. coli JW5503 (deltolC)): 4 µg/mL; MIC ([14]; D: Edwardsiella tarda): > 8 µg/mL; MIC ([15]; BW25113, B: E. coli BW25113): > 8 µg/mL"
Cc1ccc(C(F)(F)F)cc1S(=O)(=O)N[C@@H]1CCN(Cc2ccc(OC(C)C)cc2)C1 [Compound 183],> 8,> 8,> 8,> 8,8,> 8,> 8,> 8,> 8,0.5,> 8,> 8,
Cc1ccc(F)cc1S(=O)(=O)NC1CCN(Cc2ccc(OC(C)C)cc2)C1 (stereo not drawn) [Gyramide A],,,,,,,,,,,,,MIC ([17]; gyrR isolate GyrB Thr508Met): 320 µM; MIC ([18]; gyrR isolate GyrA Ser97Pro): 320 µM; MIC ([19]; gyrR isolate GyrA Pro35Thr): 320 µM; MIC ([20]; E. coli BW25113 ΔtolC (parent strain)): 20 µM; MIC ([21]; gyrR isolate GyrA Phe96Leu): 320 µM; MIC ([22]; gyrR isolate GyrA His45Tyr): 320 µM
"CO[C@@H]1[C@@H](OC(N)=O)[C@@H](O)[C@H](Oc2ccc3c(O)c(NC(=O)c4ccc(O)c(CC=C(C)C)c4)c(=O)oc3c2C)OC1(C)C [Novobiocin, novobiocin]",,,,,,,,,,,,,"MIC ([17]; Escherichia coli, BW25113): 1.25 µM; MIC ([18]; Escherichia coli, BW25113): 1.25 µM; MIC ([19]; Escherichia coli, BW25113): 1.25 µM; MIC ([20]; Escherichia coli, BW25113, E. coli BW25113 ΔtolC (parent strain)): 1.25 µM; MIC ([21]; Escherichia coli, BW25113): 1.25 µM; MIC ([22]; Escherichia coli, BW25113): 1.25 µM"
